Measured values reported in PMC9834611 (Pharmacology Research & Perspectives, 2023).
Like-named read-outs stand apart in the source and are kept apart here.

Experiments:
[1] = cited from earlier work; for t1/2: Obs
[2] = tested on: serum proteins; settings: cited from earlier work
[3] = tested on: ABCB1; assay: ABCB1‐driven transport kinetics fit to wild‐type mouse brain tissue PK data
Source text: The rate of change in the amount of drug in tissues with ABCB1 expression is as follows: (3) dAT/dt=QC×CA−CVT−FABCB1,T×Vmax,ABCB1×Cv/Km+Cv In which ABCB1‐mediated efflux of drug is characterized by Michaelis–Menten saturable kinetics, where FABCB1,T is the scaling factor for the relative expression of ABCB1 transport protein in relevant tissues, Vmax,ABCB1 is the maximum velocity of ABCB1 transport out of the tissue compartment, and Km is the associated Michaelis–Menten constant. Scaling factors, FABCB1,T , were acquired from Systems Pharmacology for ABCB1 relative tissue expression as previously reported.[36]
The transfer of drugs at the BBB is unique as the mass transfer out of the vascular space surrounding the brain tissue is hindered by a permeability barrier. […] Coupling the ABCB1 transport equations as expressed above with permeability‐limited modeling equations from Choi et al.,[23] the following equations are proposed where Equation ( 4 ) describes the amount of drug within the brain tissue and Equation ( 5 ) describes the amount of drug in the vascular space surrounding the tissue: (4) VCNS*dCCNS,T/dt=PSA×CA−CCNS,V−sfABCB1,CNS×VCNS×VMAXABCB1×CCNS,V/KMABCB1+CCNS,V (5) VBB*dCBB/dt=QCNS*CA−CV−PSA×CA−CV,CNA+sfCNS×VCNS×VMAXABCB1×CCNS,V/KMABCB1+CCNS,V where VCNS is the volume of the brain tissue, VBB is the volume consisting of brain blood, CCNS,T is the concentration of drug in the brain tissue, PSA is the permeability surface area product, sfABCB1,CNS is the relative ABCB1 expression in brain tissue, and CBB is the concentration of drug in the brain blood. VCNA and VBB were set to 97% and 3% of total brain volume, respectively.[37] […] The parameter optimization method was conducted as described previously with nonlinear least squares regression. […] The corresponding Vmax,ABCB1 value was optimized to in vivo canine PK data. […] Canine model parameter values were thus fit to the patients without concurrent treatment of omeprazole to minimize the influence of potential drug–drug interactions.

[4] = Human PBPK model Monte Carlo simulation and model parameters
[5] = Mouse PBPK model simulations and model parameters
Source text: This model thus aims to elucidate the implications of drug pharmacokinetics and mechanisms of distribution, ultimately providing a modeling base for extrapolation of simulated concentration profiles to clinical settings. The primary drivers of vinca disposition are fraction unbound drug to plasma proteins, intercellular tubulin binding, metabolism, and ABCB1‐mediated transport. With exception to the brain, tissue compartments are defined by a well‐stirred, flow‐limited model in which the concentration of drug leaving the compartment is equal to the unbound drug concentration within the tissue. The blood–brain barrier (BBB) is distinctive as the tight junctions and prolific expression of efflux transporter proteins provide a highly restrictive barrier to many lipophilic molecules. The brain is thus defined by a permeability‐limited model dictated by a modification of Fick's Law of diffusion in which the permeability‐surface area product constitutes the tissue permeation coefficient, the capillary surface area permitting diffusion, and the thickness of the cellular membrane.[32] ABCB1 is highly expressed at the blood–brain barrier as well as in the liver, gut, and kidneys, facilitating drug excretion.[14], [15]
Physiological parameters for tissue‐specific percent body weight and cardiac output for mouse, canine, and human were sourced from Brown et al.[27] and presented in Table 1. All tissue densities were approximated to be 1 kg/L. Cardiac output for respected species was estimated using a previously derived allometric scaling relationship for unanesthetized mice.[33] […] The rate of change in the amount of drug within generic, non‐eliminating compartments is governed by the following mass balance equation: (1) dAC/dt=VC×dCC/dt=QC×CA−CVT where AC is the amount of drug in the tissue, VC is the volume of the tissue (assuming static volume), CC is the concentration within the tissue, QC is the tissue perfusion rate, CA is the arterial blood drug concentration, and CVT is the venous blood drug concentration.
Tissue‐specific‐binding capacities, BC , were obtained from studies where tubulin concentrations were determined from tubulin‐binding capacities for colchicine[12] and are reported in Table 2. […] Relative tissue tubulin‐binding capacities were thus assumed to be equivalent for the mouse, dog, and human PBPK model developed herein. […] Partition coefficients, PC , for respective tissues were determined by performing parameter optimization in MATLAB's tool, SimBiology, using a nonlinear least squares regression estimation method from the optimization toolbox. The statistical modeling method fit pooled Mdr1a/b (−/−) tissue data generating one set of partition parameters for all tissues which are reported in Table 1.
The transfer of drugs at the BBB is unique as the mass transfer out of the vascular space surrounding the brain tissue is hindered by a permeability barrier.

[6] = optimized to mouse mdr1a/b (−/−) data
[7] = mouse model, optimized to mouse mdr1a/b (−/−) data

CC[C@]1(O)C[C@@H]2CN(CCc3c([nH]c4ccccc34)[C@@](C(=O)OC)(c3cc4c(cc3OC)N(C)[C@H]3[C@@](O)(C(=O)OC)[C@H](OC(C)=O)[C@]5(CC)C=CCN6CC[C@]43[C@@H]65)C2)C1 [VBL, Vinblastine]
t1/2 ([1]; Study 1: IV bolus 0.23 ± 0.08 mg/kg): 10.99 h | AUCt ([1]; Study 2: non‐small cell lung cancer, IV bolus 0.083 ± 0.009 mg/kg prior to Cisplatin infusion, n 8, Obs): 163 ± 62 h x nM | t1/2 ([1]; Study 3: IV bolus 0.2 mg/kg): 19.7 h | AUCt ([1]; Study 3: metastatic hypernephroma, IV bolus 0.2 mg/kg, n 1, Obs): 141 h x nM | bound to serum proteins ([2]; dog plasma): ≤ 75% | Protein binding (single value) ([2]; value used in dog model): 75% | Protein binding (single value) ([2]; value used in human model): 75% | Protein binding (single value) ([2]; value used in mouse model): 75% | Vmbil (biliary transport Vmax) ([3]; WT mouse, set equivalent to ABCB1 value): 928.8 nmol/L/h | Vmax, ABCB1‐driven transport ([3]; fit to wild‐type mouse brain tissue PK data): 928.8 nM/h | KmABCB1 ([3]; mouse, optimized parameter): 6.41 nmol/L | VmABCB1 ([3]; mouse, optimized parameter): 928.8 nmol/L/h | Partition coefficient PCblood [4]: 1.0 | Partition coefficient PCBM ([4]; bone marrow, optimized to mouse mdr1a/b (−/−) data): 1.0 | Partition coefficient PCCNS [4, 6]: 1.21 | Partition coefficient PCGut [4, 6]: 1.08 | Partition coefficient PCKidney [4, 6]: 3.73 | Partition coefficient PCLiver [4, 6]: 2.26 | Vmbil (biliary transport Vmax) ([5]; mdra1a/b (−/−) mouse, optimized to fecal data): 23.35 nmol/L/h | Partition coefficient PCblood ([5]; mouse model): 1.0 | Partition coefficient PCBM ([5]; mouse model, bone marrow, optimized to mouse mdr1a/b (−/−) data): 1.0 | Partition coefficient PCCNS [5, 7]: 1.21 | Partition coefficient PCGut [5, 7]: 1.08 | Partition coefficient PCKidney [5, 7]: 3.73 | Partition coefficient PCLiver [5, 7]: 2.26
